# Entries after “also recorded” stand apart in the source; their conditions may differ.
# What was measured:
# Format in all cases: in vivo, mouse
# [1] = system: C57BL/6 male mice applied with chronic immobilization stress; experiment: Behavior analysis by ORT and OLT after CIS and glutamine supplementation; settings: STR+Gln vs STR; glutamine 150 mg/kg of feed, after 15 days stress
# Method: Control (CTL) is a group which received normal diet (common diet with nutritional balance) without any stress, CTL+Gln group is a normal diet group supplemented with glutamine (150 mg/kg of feed) and without any stress, STR is a normal diet group under stress, and STR+Gln group is a normal diet group supplemented with glutamine (150 mg/kg of feed) under stress. The stress group (STR) was individually brought by force to a restrainer for 2 hours every day (i.e., between 2 PM and 4 PM) so that the animals are applied with chronic immobilization stress for 15 days. By using the cohorts of Example 1, behavior analysis was carried out. After applying the stress for 15 days, behavior analysis was immediately carried out. ORT includes three separate sessions, i.e., habituation, familiarization, and test. During 2 days of the habituation, the animals were allowed to stay in an empty open space for 10 minutes a day. After the habituation, they were subjected to familiarization by placing two identical objects in the open space. Mice of each test group were allowed to explore freely the object for 10 minutes. […] Discrimination index (DI) in ORT was then calculated according to the following formula (1). […] Discrimination index (DI) in OLT was then calculated according to the following formula (2). […]
# [2] = system: iNOS; experiment: Double-IHC protein expression after CIS and glutamine supplementation: iNOS; settings: microglial cells in infralimbic cortex and hippocampal CA1 region; glutamine supplementation diet vs stress group
# Method: Control (CTL) is a group which received normal diet (common diet with nutritional balance) without any stress, CTL+Gln group is a normal diet group supplemented with glutamine (150 mg/kg of feed) and without any stress, STR is a normal diet group under stress, and STR+Gln group is a normal diet group supplemented with glutamine (150 mg/kg of feed) under stress. The stress group (STR) was individually brought by force to a restrainer for 2 hours every day (i.e., between 2 PM and 4 PM) so that the animals are applied with chronic immobilization stress for 15 days. To determine the specific changes in the brain tissues after glutamine supplementation, double staining was carried out with a cell marker so that the proteins related to a change in ROS/RNS content (i.e., iNOS; nNOS; and p47phox and p67phox as a subunit of NOX) with cell markers are analyzed by double-IHC (immunohistochemistry). Twenty-four hours after applying the last stress, the mouse was anesthetized with avertin, and perfused with PBS (pH 7.4) and 4% formaldehyde. After that, the brain was removed, fixed, and cut to a thickness with 40 μm. […]
# [3] = system: amyloid beta 42 (Aβ42); experiment: Aβ42 in neuronally derived blood exosome (NDE) by ELISA after glutamine diet; settings: female 3×TG-AD, 3×TG+Gln vs 3×TG, after test with 6-months old animals
# Method: As an animal model for cognitive ability evaluation, a 7-weeks old 3×TG-AD female mouse (8 mice. model of Alzheimer's disease) and a C57BL/6 female mouse (10 mice, control) were selected. The animals of each type were divided into 2 groups, and each group was provided with regular animal feed (i.e., normal diet, ND) or glutamine feed (Gln). The glutamine diet group was allowed to consume the feed containing 150 mg glutamine/kg diet, from 2-months old stage to the end of test (i.e., 6 to 7-months old stage). Health state of the animal was checked by measuring, once a week, the bodyweight of the animal and food intake (FIG. 7A). After the cognitive ability test with 6-months old animals, the mouse was sacrificed using carbon dioxide and a change in neuronally derived blood exosome (NDE) protein was determined. Total exosomes were separated from serum, and, after a reaction for 1 hour with anti-CD171 antibody, they were reacted for 1 hour with streptavidin-fused magnetic beads. After that, elution was carried out using 0.05 M glycine-HCl (pH 3.0), and then addition of 1 M Tris-HCl (pH 8.0) was made. Analysis was then made by using amyloid beta 42 (Aβ42) mouse ELISA kit.
compound,measurement,setting,value
NC(=O)CC[C@H](N)C(=O)O [glutamine],discrimination index (DI) in OLT,[1],higher DI
same,discrimination index (DI) in ORT,[1],higher DI
same,expression amount of iNOS,[2],statistically significant decrement
same,Aβ42 in NDE (neuronally derived blood exosome),[3],statistically significant decrease; also recorded: suppressed

# — patent US20230310356A1, “COMPOSITION FOR PREVENTING, AMELIORATING, OR TREATING BRAIN DAMAGE AND MILD COGNITIVE IMPAIRMENT COMPRISING GLUTAMINE AS EFFECTIVE COMPONENT” (INDUSTRY-ACADEMIC COOPERATION FOUNDATION GYEONGSANG …, priority 2020, published 2023)
